Test system: Molt-4-luc leukemia
Conditions: positive control group
Method: The objective was to evaluate the anti-tumor efficacy of different compounds in leukemia model in Balb/c nude mice.
Female Balb/c nude mice, with a body weight of approximately 20 grams, were obtained from an approved vendor (Shanghai BK Laboratory Animal Co., LTD., Shanghai, China). Upon arrival, animals were assessed as to their general health by a member of a veterinary staff or authorized personnel. Animals were acclimated for at least three days (upon arrival at the experiment room) before being used for the study. Animals were housed in groups during acclimation and individually housed during in-life. […] Temperature and relative humidity were monitored daily. […]
The tumor cells were routinely subcultured twice weekly. The cells growing in an exponential growth phase were harvested and counted for tumor inoculation. […]
Mice were randomly assigned to 16 groups (vehicle control, positive control, and 14 testing article groups) based on the body weight. […] Whole body and metastatic bioluminescence were measured and recorded.
The inoculated mice were weighted and intraperitoneally injected luciferin at 150 mg/kg. […] The bioluminescence of the whole animal body, including primary and metastatic tumors, was measured and images are recorded.
Bioluminescence (BL) of the whole animal body, including primary and metastatic tumors, was measured and images were recorded using a fixed intensity scale. […]

SMILES: O=P1(N(CCCl)CCCl)NCCCO1 (centres unmarked) [Cyclophosphamide]
- mice died (day 111 after cell injection, the mouse showed bioluminescence signal): one
- outcome until day 150: died
